Test results taken from patent US6156724A, “Uses of didemnins as immunomodulating agents” (priority 1998, dated 2000).
Like-named read-outs stand apart in the source and are kept apart here. Numbered stars: 1 amine (or outer) side, 2 acyl side, 3 side chain; on linkers, the order of the positions; unused ones are H or OH. Bridge positions count the residues as written; N and C are the ends. Square brackets hold non-standard residues; d marks the D form. Peptide text beside a SMILES is read from it. * marks the point of attachment. X2 = CC[C@H](C)[C@@H](N[*:1])[C@@H](O)CC(=O)O[C@@H](C(=O)[C@H](C)C(=O)[*:2])C(C)C; X1 = CC[C@H](C)[C@@H](N[*:1])[C@@H](O)CC(=O)O[C@H](C(=O)[C@H](C)C(=O)[*:2])C(C)C; X3 = CC[C@H](C)[C@H](N[*:1])[C@@H](O)CC(=O)O[C@H](C(=O)[C@H](C)C(=O)[*:2])C(C)C; NMeY = CN[C@@H](Cc1ccc(O)cc1)C(=O)O; dNMeL = CN[C@H](CC(C)C)C(=O)O; pGlu = O=C1CC[C@@H](C(=O)O)N1; Lauroyl = CCCCCCCCCCCC(=O)*; Octanoyl = CCCCCCCC(=O)*; Cbz = O=C(OCc1ccccc1)*; Lac = C[C@H](O)C(=O)O; Propionyl = CCC(=O)*

How the values were obtained:
[1] = tested on: Balb/c splenocytes (resting lymphocytes); assay: Lymphocyte viability (LcV) assay; type: cell-based, murine; details: unstimulated Balb/c splenocytes, MTT
Method: Forty two (42) didemnin compounds (see Table 1) were evaluated for cytotoxicity to one of the lymphocyte populations in the MLR (i.e., Balb/c splenocytes). The purpose of the lymphocyte viability assay (LcV) is to measure metabolic activity in lymphocytes after they have been exposed to the compounds for the duration of an under conditions equivalent to the MLR. The inverse of the data yields cytotoxicity information about the compounds on murine lymphocytes. The rationale of using resting cells, in this case unstimulated lymphocytes, to measure cytotoxicity has a strategic importance. In the MLR the heterogenous cell populations are predominantly resting cells when the assay begins.
Test compounds were prepared in two sets as described above. Splenocytes were prepared as described previously from one murine strain (Balb/c), and a volume of 200 μL of the cell suspension was added to one set of test compounds and control wells.
Assay plates were incubated as in the MLR and then pulsed overnight 75 μL per well MTT-thiazolyl blue solution (150 μg). The plates were decanted and the resulting insoluble formazan crystals were dissolved in 200 μL of isopropyl alcohol. Absorbance at 570 nm was measured.
The LcV data were calculated as a percentage of basal metabolic activity, or percent viability, relative to BALB/c control, and an LC50 value was interpolated for each test compound.

[2] = tested on: concanavalin A-induced lymphoblasts (Con A splenocytes); assay: Lymphoblast viability (LbV) assay; details: Con A-stimulated splenocytes (lymphoblasts), MTT
[3] = tested on: murine splenocytes (Balb/c and C57B1/6); assay: Two-way mixed lymphocyte reaction (MLR) assay;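 note: proliferation read as tritiated thymidine incorporation into newly made DNA after an overnight pulse, expressed as percent of control activity, IC50 interpolated per compound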
[4] = Balb/c + C57B1/6 splenocytes, 96 h, [3H]thymidine
[5] = read-out: two-way mixed lymphocyte reaction (MLR) suppression MLR, IC50, Balb/c + C57B1/6 splenocytes, 96 h, [3H]thymidine

Row | Compound | cytoxicity to lymphocytes LcV, LC50 [1] | cytoxicity to lymphocytes LcV, LC50 ([1]; highest concentration 10 μg/mL) | cytotoxicity to lymphocytes LbV, LC50 [2] | two-way mixed lymphocyte reaction (MLR) suppression MLR, IC50 [3, 4] | IC50 [3, 5] | IC50 ([3]; read-out: MLR IC50)
1 | CCC(=O)N1CCC[C@H]1C(=O)N(C)[C@H](CC(C)C)C(=O)N[C@@H]1C(=O)N[C@H]([C@@H](C)CC)[C@@H](O)CC(=O)O[C@@H](C(C)C)C(=O)[C@H](C)C(=O)N[C@@H](CC(C)C)C(=O)N2CCC[C@H]2C(=O)N(C)[C@@H](Cc2ccc(OC)cc2)C(=O)O[C@@H]1C [Compound 32, [Propionyl^9]Didemnin B] (Propionyl-P[dNMeL]T[X1]LP[NMeY](Me); ester 3-C) | 1980 nM | 2.20 µg/mL | 0.184 nM | 0.26 ng/mL | 0.23 nM | –
2 | CCCCCCCCCCCC(=O)N(C)[C@H](CC(C)C)C(=O)N[C@@H]1C(=O)N[C@H]([C@@H](C)CC)[C@@H](O)CC(=O)O[C@@H](C(C)C)C(=O)[C@H](C)C(=O)N[C@@H](CC(C)C)C(=O)N2CCC[C@H]2C(=O)N(C)[C@@H](Cc2ccc(OC)cc2)C(=O)O[C@@H]1C [Compound 24, N^α -Dodecanoyldidemnin A] (Lauroyl-[dNMeL]T[X1]LP[NMeY](Me); ester 2-C) | > 8900 nM | > 10 µg/mL | 160 nM | 119 ng/mL | 106 nM | –
3 | CCCCCCCC(=O)N(C)[C@H](CC(C)C)C(=O)N[C@@H]1C(=O)N[C@H]([C@@H](C)CC)[C@@H](O)CC(=O)O[C@@H](C(C)C)C(=O)[C@H](C)C(=O)N[C@@H](CC(C)C)C(=O)N2CCC[C@H]2C(=O)N(C)[C@@H](Cc2ccc(OC)cc2)C(=O)O[C@@H]1C [Compound 23, N^α -Octanoyldidemnin A] (Octanoyl-[dNMeL]T[X1]LP[NMeY](Me); ester 2-C) | > 9350 nM | > 10 µg/mL | 21 nM | 5.50 ng/mL | 5.1 nM | –
4 | CC[C@H](C)[C@H]1NC(=O)[C@@H](NC(=O)[C@@H](CC(C)C)NC)[C@@H](C)OC(=O)[C@H](Cc2ccc(OC)cc2)N(C)C(=O)[C@@H]2CCCN2C(=O)[C@H](CC(C)C)NC(=O)[C@@H](C)C(=O)[C@@H](C(C)C)OC(=O)C[C@@H]1O [Compound 12, Epididemnin A1] (H-[dNMeL]T[X2]LP[NMeY](Me); ester 2-C) | > 10600 nM | > 10 µg/mL | 51 nM | 81.0 ng/mL | 86 nM | –
5 | CC[C@H](C)[C@H]1NC(=O)[C@@H](NC(=O)[C@@H](CC(C)C)N(C)C(=O)[C@@H]2CCCN2C(=O)[C@H](C)OC(=O)[C@H](CCC(N)=O)NC(=O)[C@H](CCC(N)=O)NC(=O)[C@@H]2CCC(=O)N2)[C@@H](C)OC(=O)[C@H](Cc2ccc(OC)cc2)N(C)C(=O)[C@@H]2CCCN2C(=O)[C@H](CC(C)C)NC(=O)[C@@H](C)C(=O)[C@H](C(C)C)OC(=O)C[C@@H]1O [Compound 39, Didemnin E] ([pGlu]QQ[Lac]P[dNMeL]T[X1]LP[NMeY](Me); ester 7-C) | > 6770 nM | > 10 µg/mL | 1.4 nM | 0.012 ng/mL | 0.0084 nM | 0.0084 nM
6 | Didemnin X [Compound 41] | 6010 nM | 10.0 µg/mL | 3.1 nM | 0.83 ng/mL | 0.5 nM | –
7 | CC[C@H](C)[C@@H]1NC(=O)[C@@H](NC(=O)[C@@H](CC(C)C)N(C)C(=O)OCc2ccccc2)[C@@H](C)OC(=O)[C@H](Cc2ccc(OC)cc2)N(C)C(=O)[C@@H]2CCCN2C(=O)[C@H](CC(C)C)NC(=O)[C@@H](C)C(=O)[C@H](C(C)C)OC(=O)C[C@@H]1O [Compound 6, Z-[(3S,4S,5S)-Ist^2]Didemnin A] (Cbz-[dNMeL]T[X3]LP[NMeY](Me); ester 2-C) | > 9300 nM | > 10 µg/mL | 2600 nM | 290 ng/mL | 270 nM | –
